Target: T1, His6-PDK1 (aa 52-556) (Homo sapiens, UniProt O15530)
T1 construct: 15 μL His6-PDK1 (aa 52-556) 3.33 ng/well); host or cells: baculovirus-infected insect cells
T1 sequence (O15530 52-556): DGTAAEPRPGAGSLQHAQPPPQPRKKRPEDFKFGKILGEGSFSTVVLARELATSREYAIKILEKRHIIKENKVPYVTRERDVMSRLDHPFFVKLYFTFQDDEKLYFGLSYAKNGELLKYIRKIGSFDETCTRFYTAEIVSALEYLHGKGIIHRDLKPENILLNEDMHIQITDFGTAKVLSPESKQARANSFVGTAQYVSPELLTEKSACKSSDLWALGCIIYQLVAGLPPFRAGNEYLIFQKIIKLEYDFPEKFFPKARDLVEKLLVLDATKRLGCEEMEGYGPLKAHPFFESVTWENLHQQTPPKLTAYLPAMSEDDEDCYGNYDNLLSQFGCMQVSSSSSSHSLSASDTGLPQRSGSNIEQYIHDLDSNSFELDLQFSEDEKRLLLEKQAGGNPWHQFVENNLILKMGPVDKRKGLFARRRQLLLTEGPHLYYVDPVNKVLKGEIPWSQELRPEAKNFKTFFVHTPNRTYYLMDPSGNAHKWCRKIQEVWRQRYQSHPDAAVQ
Assay: PDK1 kinase assay III (with Tween 20)
Format: biochemical
Conditions: compound at 10 μM; PDK1 kinase assay III (values without asterisk); read-out: % CTL (residual activity of the enzyme relative to DMSO control)
How it was run: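 Started with ATP, incubated 90 min at ambient temperature, then stopped with phosphoric acid. Asterisked values come from assay II (24 h or 5 min incubation).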

| remaining activity at 10 µM [%] | SMILES |
| --- | --- |
| 14.6 | Cc1c(C(=O)NCC#Cc2cc3cnc(Nc4ccc(N5CCOCC5)cc4)nc3n(C(C)C)c2=O)c(=O)n(Cc2ccc(F)c(F)c2)n1C [IV-58, 2-(3,4-difluorobenzyl)-1,5-dimethyl-N-{3-[2-{[4-(morpholin-4-yl)phenyl]amino}-7-oxo-8-(propane-2-yl)-7,8-dihydropyrido[2,3-c]pyrimidin-6-yl]prop-2-yn-1-yl}-3-oxo-2,3-dihydro-1H-pyrazole-4-carboxamide] |
| 12.9 | CC(C)n1c(=O)c(C#CCNC(=O)c2cncn(Cc3ccc(F)c(F)c3)c2=O)cc2cnc(Nc3ccc(N4CCOCC4)cc3)nc21 [IV-59, 1-(3,4-difluorobenzyl)-N-{3-[2-{[4-(morpholin-4-yl)phenyl]amino}-7-oxo-8-(propane-2-yl)-7,8-dihydropyrido[2,3-c]pyrimidin-6-yl]prop-2-yn-1-yl}-6-oxo-1,6-dihydropyrimidine-5-carboxamide] |
| 13.3 | Cc1c(C#CCNC(=O)c2c(C)n(C)n(Cc3ccc(F)c(F)c3)c2=O)c(=O)n(CCN)c2nc(Nc3ccc(N4CCOCC4)cc3)ncc12 [IV-60, N-{3-[8-(2-aminoethyl)-5-methyl-2-{[4-(morpholin-4-yl)phenyl]amino}-7-oxo-7,8-dihydropyrido[2,3-d]pyrimidin-6-yl]prop-2-yn-1-yl}-2-(3,4-difluorobenzyl)-1,5-dimethyl-3-oxo-2,3-dihydro-1H-pyrazole-4-carboxamide] |
| 13.9 | CN(C)Cc1ccc(Nc2ncc3cc(/C=C/CNC(=O)c4nc(Cl)cn(Cc5ccc(F)c(F)c5)c4=O)ccc3n2)cc1 [IV-61, 6-chloro-4-(3,4-difluorobenzyl)-N-{(2E)-3-[2-({4-[(dimethylamino)methyl]phenyl}amino)quinazolin-6-yl]prop-2-en-1-yl}-3-oxo-3,4-dihydropyrazine-2-carboxamide] |
| 19.1 | O=C(NC/C=C/c1ccc2nc(Nc3ccccc3)ncc2c1)c1cncn(Cc2ccc(F)c(F)c2)c1=O [IV-62] |

| SMILES | remaining activity at 10 µM [%] |
| --- | --- |
| CC(C)Nc1ncc2cc(/C=C/CNC(=O)c3cccn(Cc4ccc(F)c(F)c4)c3=O)ccc2n1 [IV-91] | 26.1 |

Same assay, conditions: read-out: % CTL (residual activity of the enzyme relative to DMSO control)

| SMILES | remaining activity at 10 µM [%] |
| --- | --- |
| Cc1c(C(=O)NC/C=C/c2ccc3nc(NC(C)C)ncc3c2)c(=O)n(Cc2ccc(F)c(F)c2)n1C [IV-92] | 21.6 |

Target: T2, ΔPH-PDK1 (aa 51-359; Q66A mutation) (Homo sapiens, UniProt O15530, Q66A)
T2 construct: a shortened PDK1 enzyme (aa 51-359; Q66A mutation) is used; His6 (N, cleaved yes)
T2 sequence (O15530 51-359 Q66A): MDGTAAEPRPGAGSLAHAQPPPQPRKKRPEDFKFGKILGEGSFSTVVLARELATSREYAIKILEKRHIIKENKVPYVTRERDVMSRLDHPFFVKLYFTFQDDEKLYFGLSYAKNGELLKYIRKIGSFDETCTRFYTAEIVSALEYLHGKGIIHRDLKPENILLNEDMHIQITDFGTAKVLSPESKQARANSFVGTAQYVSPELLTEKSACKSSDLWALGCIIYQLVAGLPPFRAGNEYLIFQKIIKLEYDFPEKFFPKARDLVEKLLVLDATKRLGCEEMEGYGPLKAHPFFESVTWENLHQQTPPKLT
Assay: PDK1 kinase assay II (shortened enzyme)
Format: biochemical
Conditions: compound at 10 μM, one asterisk: incubation for 24 h, read-out: % CTL (residual activity of the enzyme relative to DMSO control)
Protocol: Another assay was developed in which a shortened PDK1 enzyme (aa 51-359; Q66A mutation) is used that carries in the N-terminal position a His6 tag that is cleaved during purification. (ΔPH-PDK1).
The following components are combined in a well of a 96-well round-based dish (Messrs. Greiner bio-one, No. 650101): • 15 μL of compound to be tested in varying concentrations (e.g. Starting at 10 μM, and diluted in steps of 1:5) in 3.33% DMSO (final concentration 1% DMSO)/assay buffer (50 mM Tris pH 7.5, 0.05% β-mercaptoethanol, 10 mM Mg-acetate) • 15 μL (ΔPH-PDK1; 12 ng/well) and PDKtide ([…]-QEMFRDFDYIADWC) synthesised by Pepceuticals Limited, Nottingham, United Kingdom; 25 μM final concentration); (ΔPH-PDK1 and PDKtide are together diluted accordingly in assay buffer; PDKtide is present in this mixture as an 83.3 μM solution. These 30 […] are incubated for 24 h at RT before ATP solution is added. • 20 μL ATP solution (25 μM ATP with 1.0 μCi/well gamma-P33-ATP)
The reaction is started by adding the ATP solution and the mixture is incubated for 120 min at ambient temperature; at the start of the reaction the dishes are shaken gently. The reaction is stopped by the addition of 50 μL/well of 500 mM phosphoric acid (H3PO4) and incubated for about 20 min at ambient temperature. The precipitate is transferred by harvesting onto filter plates (96-well microtitre filter plate: UniFilter GF/C; Messrs Perkin Elmer; No. 6005174), then washed 6 times with 50 mM H3PO4 and dried at 60° C. Then the plate is stuck down with sealing tape, 25 μL/well of scintillation solution (Microscint 0; Messrs. Perkin Elmer; No. 6013611) are added and the amount of P33 precipitated is measured using the Wallac Betacounter. The measured data are evaluated using Graphpad Prism software.
The % CTL values indicate the residual activity of the enzyme after the addition of the inhibitory compound in the solvent DMSO in relation to the enzyme activity in the solvent DMSO without the addition of a compound (control). The majority of the values were determined using the PDK1 kinase assay III described hereinbefore. The values marked with an asterisk (* or**) were determined using the PDK1 kinase assay II described hereinbefore (one asterisk→incubation for 24 h; two asterisks→incubation for 5 min)

| SMILES | remaining activity at 10 µM [%] |
| --- | --- |
| Cc1c(C(=O)NC/C=C/c2cc(OC3CCNCC3)c3nc(Nc4ccc(N5CCOCC5)cc4)ncc3c2)c(=O)n(Cc2ccc(F)c(F)c2)n1C | 8.9 |
| Cc1c(C(=O)NCC#Cc2ccc3nc(Nc4ccc(C(=O)NCCO)cc4)ncc3c2)c(=O)n(Cc2ccc(F)c(F)c2)n1C | 12.1 |
| Cc1ncc(C(=O)NC/C=C/c2ccc3nc(Nc4ccc(N(C)C5CCN(C)CC5)cc4)ncc3c2)c(=O)n1Cc1ccc(F)c(F)c1 | 5.8 |
| CN(C)Cc1c[nH]c(/C=C2\C(=O)Nc3cc(/C=C/CNC(=O)c4cncn(Cc5ccc(F)c(F)c5)c4=O)ccc32)c1 [I-15, 1-(3,4-difluorobenzyl)-N-{(2E)-3-[(3Z)-3-({4-[(dimethylamino)methyl]-1H-pyrrol-2-yl}methylidene)-2-oxo-2,3-dihydro-1H-indol-6-yl]prop-2-en-1-yl}-6-oxo-1,6-dihydropyrimidine-5-carboxamide] | 15.7 |
| Cc1nc[nH]c1/C=C1\C(=O)Nc2cc(/C=C/CNC(=O)c3c(C)n(C)n(Cc4ccc(F)c(F)c4)c3=O)ccc21 [I-18, 2-(3,4-difluorobenzyl)-1,5-dimethyl-N-[(2E)-3-{(3Z)-3-[(4-methyl-1H-imidazol-5-yl)methylidene]-2-oxo-2,3-dihydro-1H-indol-6-yl}prop-2-en-1-yl]-3-oxo-2,3-dihydro-1H-pyrazole-4-carboxamide] | 6.6 |
| C/C(=C\c1ccc2c(c1)NC(=O)/C2=C\c1cnc[nH]1)CNC(=O)c1cncn(Cc2ccc(F)c(F)c2)c1=O [I-45, 1-(3,4-difluorobenzyl)-N-{(2E)-3-[(3Z)-3-(1H-imidazol-5-ylmethylidene)-2-oxo-2,3-dihydro-1H-indol-6-yl]-2-methylprop-2-en-1-yl}-6-oxo-1,6-dihydropyrimidine-5-carboxamide] | 7.9 |

Results, then the compound that gave them:

| remaining activity at 10 µM [%] | SMILES |
| --- | --- |
| 9.1 | Cc1c(C(=O)NCC#Cc2cc3cnc(Nc4ccccc4)nc3n(C)c2=O)c(=O)n(Cc2ccc(F)c(F)c2)n1C [III-23, 2-(3,4-difluorobenzyl)-1,5-dimethyl-N-{3-[8-methyl-7-oxo-2-(phenylamino)-7,8-dihydropyrido[2,3-d]pyrimidin-6-yl]prop-2-yn-1-yl}-3-oxo-2,3-dihydro-1H-pyrazole-4-carboxamide] |
| 13.8 | Cc1c(C#CCNC(=O)c2c(C)n(C)n(Cc3ccc(F)c(F)c3)c2=O)c(=O)n(C(C)C)c2nc(Nc3ccc(N4CCOCC4)cc3)ncc12 [III-28, 2-(3,4-difluorobenzyl)-1,5-dimethyl-N-{3-[5-methyl-2-{[4-(morpholin-4-yl)phenyl]amino}-7-oxo-8-(propane-2-yl)-7,8-dihydropyrido[2,3-d]pyrimidin-6-yl]prop-2-yn-1-yl}-3-oxo-2,3-dihydro-1H-pyrazole-4-carboxamide] |
| 6.5 | CN1CCC(Nc2ccc(Nc3ncc4cc(C#CCNC(=O)c5cncn(Cc6ccc(F)c(F)c6)c5=O)ccc4n3)cc2F)CC1 [III-31, 1-(3,4-difluorobenzyl)-N-{3-[2-({3-fluoro-4-[(1-methylpiperidin-4-yl)amino]-phenyl}amino)quinazolin-6-yl]prop-2-yn-1-yl}-6-oxo-1,6-dihydropyrimidine-5-carboxamide] |
| 67.3 | CN1CCN(c2ccc(Nc3ncc4cc(/C=C/CNC(=O)c5cncn(Cc6ccc(F)c(F)c6)c5=O)ccc4n3)cc2)CC1 [IV-4, 1-(3,4-difluorobenzyl)-N-[(2E)-3-(2-{[4-(4-methylpiperazin-1-yl)phenyl]-amino}quinazolin-6-yl)prop-2-en-1-yl]-6-oxo-1,6-dihydropyrimidine-5-carboxamide] |
| 27.9 | C/C(=C\c1ccc2nc(Nc3ccc(CN(C)C)cc3)ncc2c1)CNC(=O)c1cncn(Cc2ccc(F)c(F)c2)c1=O [IV-28, 1-(3,4-difluorobenzyl)-N-{(2E)-3-[2-({4-[(dimethylamino)methyl]phenyl}amino)-quinazolin-6-yl]-2-methylprop-2-en-1-yl}-6-oxo-1,6-dihydropyrimidine-5-carboxamide] |

Same assay, conditions: compound at 10 μM, two asterisks: incubation for 5 min, read-out: % CTL (residual activity of the enzyme relative to DMSO control)

| remaining activity at 10 µM [%] | SMILES |
| --- | --- |
| 33 | CN(C)Cc1ccc(Nc2ncc3cc(C#CCNC(=O)c4cn(C)c(=O)n(Cc5ccc(F)c(F)c5)c4=O)ccc3n2)cc1 [III-21, 3-(3,4-difluorobenzyl)-N-{3-[2-({4-[(dimethylamino)methyl]phenyl}amino)-quinazolin-6-yl]prop-2-yn-1-yl}-1-methyl-2,4-dioxo-1,2,3,4-tetrahydropyrimidine-5-carboxamide] |
